In patent US7563774B2, “Combination of FBPase inhibitors and antidiabetic agents useful for the treatment of diabetes” (Metabasis Therapeutics, Inc., priority 2000, dated 2009):

Key:
[1] = test system: Sprague Dawley rats; assay: Oral glucose lowering in overnight fasted Sprague Dawley rats (Example G); format: in vivo, rat; details: […]
Description: Oral efficacy of Compound J was assessed in overnight fasted Sprague Dawley rats. […] At 1.5 h or 4 h post drug administration, a blood sample was taken from the tail vein and analyzed for blood glucose by means of an automated glucose analyzer (HemoCue, HemoCue Inc, Mission Viejo, Calif.).

[2] = test system: Zucker Diabetic Fatty (ZDF) rat; assay: Glucose lowering in the ZDF rat (Example W); format: in vivo; details: for Blood Glucose: 0.4% food admixture
Text: The Zucker Diabetic Fatty (ZDF) rat is widely used as a model for human NIDDM as the progression of the disease in these rodents is similar to that described for human […] patients. […] Clark J B, Palmer C J (1982) Diabetes 30: 126A Terrettaz J, Jeanrenaud B (1983) Endocrinology 112: 1346-1351.

[3] = test system: Zucker Diabetic Fatty rats; assay: Acute combination treatment of an insulin secretagogue and Compound J in the ZDF rat (Example X); format: in vivo
Description: Experimental Protocol: Zucker Diabetic Fatty rats (9.5 weeks of age) were fasted for 5 hours starting at 8 am. The animals were then divided into 4 treatments groups with statistically similar baseline blood glucose levels. Test compounds were administered by oral gavage. The treatments were as shown below:
One hour after saline or drug administration, all animals received a simulated meal in the form of an oral bolus of glucose (1 g/kg). Blood glucose was then monitored at regular time intervals for 3 hours. Test compounds were prepared as suspensions in 0.1% carboxymethylcellulose. Blood samples were obtained by nicking of a tail vein. Blood glucose was measured by means of a HemoCue glucose analyzer according to the manufacturer's instructions (HemoCue Inc., Mission Viejo, Calif.). Results are expressed as the mean ± standard error of the mean for all values.

[4] = test system: C57BL/KsJ db/db mice; assay: Chronic combination treatment of insulin and Compound J in db/db mice (Example BB); format: in vivo, mouse; details: combination group versus insulin alone
Description: Male C57BL/KsJ db/db mice were purchased at 5 weeks of age from Clea Japan, Inc. (Tokyo, Japan). […] At 19 weeks of age, animals were divided into 2 groups (n=6/group). […] Blood glucose levels in tail vein samples were measured by means of a Glucoloader-F, an automatic glucose analyzer, (A&T Co., Ltd., Tokyo, Japan).

[5] = test system: C57BL/KsJ db/db mice; assay: Acute combination treatment of a biguanide and an FBPase inhibitor in db/db mice (Example DD); format: in vivo, mouse
Description: Male C57BL/KsJ db/db mice were purchased at 5 weeks of age from Clea Japan, Inc. (Tokyo, Japan). The mice were maintained under standard vivarium conditions (24-26° C., 12-hour light cycle, 12-hour dark cycle) and received standard chow and water ad libitum. […] The treatment groups were control, compound J , metformin, and the combination of compound J and metformin. […] Food was removed after treatment. Blood glucose levels in tail vein samples were measured by means of a Glucoloader-F, an automatic glucose analyzer, (A&T Co., Ltd., Tokyo, Japan).

[6] = test system: Goto-Kakizaki rats; assay: Acute combination treatment of an alpha glucosidase inhibitor and an FBPase inhibitor in Goto-Kakizaki rats (Example EE); format: in vivo, rat
Description: Goto-Kakizaki rats, an animal model of lean NIDDM, were purchased at 5 weeks of age from Charles River Japan, Inc. (Tokyo, Japan). The rats were maintained under standard vivarium conditions (24-26° C., 12-hour light cycle, 12-hour dark cycle) and received standard chow and water ad libitum. At 18 weeks of age, animals were divided into 4 groups (n=5/group). The treatment groups were control, Compound J, acarbose (Bayer, Japan), and the combination of Compound J and acarbose. All animals were given 1 g/kg of corn starch by oral gavage. […] Acarbose was administered orally at a dose of 1 mg/kg simultaneously with starch. Blood glucose levels in tail vein samples were measured by means of a Glucoloader-F, an automatic glucose analyzer, (A&T Co., Ltd., Tokyo, Japan).

[7] = test system: Db/db or ob/ob mice; assay: Acute combination treatment of a glycogen phosphorylase inhibitor and an FBPase inhibitor in db/db or ob/ob mice (Example FF); format: in vivo, mouse; details: 0.5 to 300 mg/kg p.o.
Description: Db/db or ob/ob mice are purchased at 5 weeks of age from Jackson Laboratories (Bar Harbor, Me.). The mice are maintained under standard vivarium conditions (24-26° C., 12-hour light cycle, 12-hour dark cycle) and receive standard chow and water ad libitum. At more than 10 weeks of age, animals are divided into 4 groups (n=5 to 7/group). […] Food is made available after treatment. Blood glucose levels in tail vein samples are measured by means of standard manual or automated methods.

[8] = test system: streptozotocin diabetic Sprague Dawley rats; assay: Acute combination treatment of an FBPase inhibitor and an amylin agonist in streptozotocin diabetic rats (Example HH); format: in vivo, rat; details: pramlintide 10 micrograms i.v., Compound J 300 mg/kg p.o.
Description: Animals are then gavaged with 1 mL 50% glucose, and allowed ad libitum access to food. Blood glucose is collected from the tail vein at 0, 30, 60, 120, 180, and 240 minutes following glucose administration.

[9] = test system: streptozotocin-induced diabetic rat; assay: Chronic combination treatment of a fatty acid oxidation inhibitor and an FBPase inhibitor in the streptozotocin-induced diabetic rat (Example JJ); format: in vivo; details: etomoxir 3-300 mg/kg s.c., Compound J 0.2% w/w food admixture, 2-6 weeks
Description: Male Sprague-Dawley rats (Charles Rivers Laboratories) weighing approximately 120 g at the beginning of the study are housed under standard vivarium conditions and fed standard chow (Purina 5001). Rats are rendered diabetic by injection of 55 mg/kg body weight of streptozotocin (STZ) in citrate buffer, pH 4.7. […] Drug treatment is continued for 2-6 weeks. Blood glucose levels are monitored at regular intervals during the treatment period. At the end of the study, rats are anesthetized and instrumented with jugular vein and carotid artery catheters. Hepatic glucose production is measured using a primed constant infusion of (^3H)-6-glucose. Blood samples are taken after two hours, and the specific activity of glucose measured by […]. Hepatic glucose production rater are calculated by standard methods.

[10] = glyburide 100 mg/kg, Compound J 300 mg/kg p.o.

blood lactate levels (FIG. 2) [3, 10]: increase in blood lactate levels
Structure (SMILES): CCOC(=O)[C@H](C)NP(=O)(N[C@@H](C)C(=O)OCC)c1ccc(-c2nc(N)sc2CC(C)C)o1 [Compound J, 2-Amino-5-isobutyl-4-{2-[5-(N,N′-bis((S)-1-ethoxycarbonyl)ethyl)phosphonamido]furanyl}thiazole]
Glucose Lowering, % ([1]; Compound J 10 mg/kg p.o.): 66% | Glucose Lowering, % ([1]; Compound J 30 mg/kg p.o.): 85% | glycemic control [2]: significantly improved glycemic control | Blood Glucose ([2]; Day 0): 674 ± 20 mg/dL | Blood Glucose ([2]; Day 21): 452 ± 40 mg/dL | blood glucose after oral glucose load (FIG. 1) [3, 10]: lowering blood glucose to below baseline levels | AUC glucose ([3]; initial 4 hours post drug, glyburide 100 mg/kg, Compound J 300 mg/kg p.o., oral glucose 1 g/kg): 1121 ± 82 mg·h/dL | maximally efficacious dose ([3]; pilot studies, ZDF rat): 300 mg/kg | decrease of the insulin dose required to reduce plasma glucose to target levels [4]: ~40% | Plasma Glucose, % of pretreatment value ([5]; after 2 hour): (70.2 +/− 14.6) % | Plasma Glucose ([5]; after 2 hour, Compound J and/or metformin 150 mg/kg p.o.): 448.6 ± 42.5 mg/dL | Plasma Glucose ([5]; after 4 hour): 376.7 ± 39.9 mg/dL | Plasma Glucose, % of pretreatment value ([5]; after 4 hour): (72.4 +/− 5.0) % | Plasma Glucose ([5]; after 6 hour): 357.7 ± 40.4 mg/dL | Plasma Glucose, % of pretreatment value ([5]; after 6 hour): (68.7 +/− 5.5) % | Plasma Glucose ([5]; after 8 hour): 386.5 ± 43.1 mg/dL | Plasma Glucose, % of pretreatment value ([5]; after 8 hour): (74.2 +/− 5.8) % | Plasma Glucose ([5]; before (0 hour)): 514.3 ± 23.0 mg/dL | Plasma Glucose, % of pretreatment value ([5]; before (0 hour)): (100.0 +/− 0.0) % | blood glucose lowering ([5]; db/db mice, acute): lowered blood glucose significantly relative to controls | Plasma Glucose, relative value (% of pre-treatment value) ([6]; 0 min): (121.8 +/− 8.0) % | Plasma Glucose ([6]; 0 min, Compound J 10 mg/kg p.o. at −60 min, acarbose 1 mg/kg p.o. with starch): 218.4 ± 19.9 mg/dL | Plasma Glucose ([6]; 30 min after starch): 245.2 ± 29.9 mg/dL | Plasma Glucose, relative value (% of pre-treatment value) ([6]; 30 min after starch): (135.2 +/− 9.2) % | Plasma Glucose ([6]; 60 min after starch): 251.0 ± 28.6 mg/dL | Plasma Glucose, relative value (% of pre-treatment value) ([6]; 60 min after starch): (138.5 +/− 6.2) % | Plasma Glucose ([6]; 120 min after starch): 182.8 ± 18.0 mg/dL | Plasma Glucose, relative value (% of pre-treatment value) ([6]; 120 min after starch): (101.8 +/− 7.2) % | Plasma Glucose ([6]; 240 min after starch): 144.6 ± 9.8 mg/dL | Plasma Glucose, relative value (% of pre-treatment value) ([6]; 240 min after starch): (81.7 +/− 6.7) % | Plasma Glucose, relative value (% of pre-treatment value) ([6]; −60 min): (100.0 +/− 0.0) % | Plasma Glucose ([6]; −60 min relative to starch 1 g/kg): 179.8 ± 15.2 mg/dL | blood glucose lowering [7]: significantly lower blood glucose relative to control values | postprandial glucose excursion [8]: attenuated the postprandial glucose excursion | Blood Glucose [9]: lowered significantly
